The numbers were not newly measured in patent US20050002974A1, “Itch-relieving cosmetic or dermatological preparation” (Beiersdorf AG, priority 2002, published 2005), which cites them from elsewhere.

The conditions of data set [1]: rubbed into the skin.
For data set [2] the following is noted: used in aqueous solutions.

Regarding `CC1CCC(C(C)C)C(O)C1` (centres unmarked) [menthol, Menthol], in data set [1], the “feel on the skin” value was “pleasant cooling feel”.

Regarding “polyethylene glycol (9) monododecyl ether [polidocanol]”, the local anesthetic properties result in data set [2] is recorded as “strong local anesthetic properties”.
